Assay results from the NIST ThermoML archive (doi:10.1016/j.jct.2009.01.014).

Conditions: for molar entropy: 101.33 kPa, Crystal 1, Vacuum adiabatic calorimetry

[Al+3].[Al+3].[Co+2].[O-2].[O-2].[O-2].[O-2] [aluminium cobalt oxide]
Conditions | Triple point temperature [K] | molar entropy [J/K/mol]
15 K | – | 2.91
20 K | – | 4.1
25 K | – | 5.02
30 K | – | 5.79
35 K | – | 6.5
40 K | – | 7.21
45 K | – | 7.95
50 K | – | 8.75
55 K | – | 9.61
60 K | – | 10.56
65 K | – | 11.58
70 K | – | 12.68
75 K | – | 13.85
80 K | – | 15.1
85 K | – | 16.42
90 K | – | 17.81
95 K | – | 19.26
100 K | – | 20.77
105 K | – | 22.33
110 K | – | 23.96
120 K | – | 27.36
130 K | – | 30.94
140 K | – | 34.68
150 K | – | 38.55
160 K | – | 42.52
170 K | – | 46.6
180 K | – | 50.73
190 K | – | 54.92
200 K | – | 59.14
210 K | – | 63.39
220 K | – | 67.65
230 K | – | 71.9
240 K | – | 76.15
250 K | – | 80.37
260 K | – | 84.57
270 K | – | 88.74
280 K | – | 92.88
290 K | – | 97
298.15 K | – | 100.31
300 K | – | 101.06
310 K | – | 105.07
320 K | – | 109.05
330 K | – | 112.99
340 K | – | 116.88
350 K | – | 120.72
360 K | – | 124.52
370 K | – | 128.28
380 K | – | 131.99
390 K | – | 135.65
Crystal 2, Adiabatic calorimetry | 9 | –
